Reference: US9120795B2, “Crystalline form of a β-lactamase inhibitor” (Cubist Pharmaceuticals, Inc., priority 2013, dated 2015)

Biological target: KPC-2 β-lactamase (Klebsiella pneumoniae, UniProt Q9F663)
Experiment: Inhibition kinetics with nitrocefin as reporter substrate
Assay type: biochemical
Conditions: 100 μM nitrocefin, 1×PBS pH 7.4, 25° C.
Protocol: Inhibition or inactivation of KPC-2 by test inhibitors was assessed using 100 μM nitrocefin (NCF) as a reporter substrate. Assays were performed in 1×PBS pH 7.4, 0.1 mg/ml BSA, in 96-well half area plates, 50 μl reaction volume. NCF was dissolved in DMSO and diluted in assay buffer. Test inhibitors were dissolved in water or DMSO and serially diluted in the assay with final concentrations between 2000-0.195 μM.
The enzyme activity in the presence of varying concentrations of test inhibitor was determined by monitoring the hydrolysis of NCF spectrophotometrically at 486 nm, for 5 minutes, 25° C., using a SpectraMax Plus384 microplate reader with SoftMax Pro software (Molecular Devices). Data analysis was performed using GraphPad Prism (GraphPad Software, Inc.).
Progress curves were fit to a first-order rate decay equation (Eq. 1) to determine kobserved (kobs).
kobs vs. inhibitor concentration [I] curves were then fit to Eq.2 to determine the inhibitor dissociation constant (K) and the first order rate constant of enzyme inactivation at infinite inhibitor concentration (kinact). […] Yt=V0*(1−e^(−kobs*t))/kobs Eq. 1 Where Y is the absorbance at time t, V0 is the uninhibited enzyme velocity, kobs is the observed rate constant of the enzyme inactivation. kobs=kinact*[I]/([I]+K(1+S/Km)) Eq. 2 Where S is the NCF concentration, Km is the KPC-2 Km for NCF.

Sequence of KPC-2 β-lactamase (Q9F663 25-293 limits assumed): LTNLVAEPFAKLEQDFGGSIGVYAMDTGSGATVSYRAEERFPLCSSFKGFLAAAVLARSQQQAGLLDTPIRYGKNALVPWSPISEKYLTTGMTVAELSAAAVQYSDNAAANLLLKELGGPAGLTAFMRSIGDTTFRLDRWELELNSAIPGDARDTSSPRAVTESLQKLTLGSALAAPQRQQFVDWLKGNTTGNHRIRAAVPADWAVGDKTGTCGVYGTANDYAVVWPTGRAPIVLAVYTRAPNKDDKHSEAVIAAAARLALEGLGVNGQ

O=C1N2C[C@@H](CC[C@H]2c2nnco2)N1OS(=O)(=O)[O-].[Na+] [Hydrate 1, sodium (2S,5R)-2-(1,3,4-oxadiazol-2-yl)-7-oxo-1,6-diazabicyclo[3.2.1]octan-6-yl sulfate]
Kinact/K: 134000 to 163000 M⁻¹ s⁻¹
